Values of other authors, collected in US20260191206A1, “SYNERGISTIC INSECTICIDAL COMPOSITION COMPRISING PHTHALIMIDE COMPOUNDS AND THE USE THEREOF” (COUNCIL OF SCIENTIFIC AND INDUSTRIAL RESEARCH AN INDIAN …, priority 2022, published 2026).

Test system: trehalose 6-phosphate phosphatase
Settings: Cross et al, Sci Rep 9, 16165 (2019)

O=C1c2ccccc2C(=O)N1Sc1ccccc1 [NPP, N-(Phenylthio) phthalimide]
inhibition of trehalose 6-phosphate phosphatase: inhibit
